From patent US20240408216A1, “PROTEIN INHIBITOR OR DEGRADING AGENT, PHARMACEUTICAL COMPOSITION CONTAINING SAME AND PHARMACEUTICAL USE” (JING MEDICINE TECHNOLOGY (SHANGHAI) LTD., priority 2021, published 2024)
Like-named read-outs stand apart in the source and are kept apart here.

Experiments:
[1] = test system: BaF3 (EGFR Del19/T790M/C797S); assay: Cell proliferation IC50 assay (Cell Titer GLO), BaF3 DTC cells; type: cell-based; settings: Mus musculus, Ba/F3 EGFR-Del19/T790M/C797S
How it was run: (§1)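 Each cell line, plated at 2000-4000 cells/well, received serially diluted compound for 72 h (37° C, 5% CO2) before luminescent ATP-based viability detection. IC50 values were derived from growth inhibition relative to DMSO-treated and cell-free blank wells.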

[2] = test system: BaF3 (EGFR L858R/T790M/C797S); assay: Cell proliferation IC50 assay (Cell Titer GLO), BaF3 LTC cells; type: cell-based; settings: Mus musculus, Ba/F3 EGFR
How it was run: as §1

[3] = biological target: T1, BaF3 (EGFR Del19/C797S) (Homo sapiens, UniProt P00533, C797S, cells depend on it, form not given); assay: Cell proliferation IC50 assay (Cell Titer GLO), BaF3 DC cells; type: cell-based, mouse; settings: Table 7, 72 h
T1 construct: BaF3 (EGFR Del19/C797S)|DC|RPMI1640 + 10% FBS
T1 sequence (P00533 with tags, fused parts or gaps DEL746-750/C797S, form open): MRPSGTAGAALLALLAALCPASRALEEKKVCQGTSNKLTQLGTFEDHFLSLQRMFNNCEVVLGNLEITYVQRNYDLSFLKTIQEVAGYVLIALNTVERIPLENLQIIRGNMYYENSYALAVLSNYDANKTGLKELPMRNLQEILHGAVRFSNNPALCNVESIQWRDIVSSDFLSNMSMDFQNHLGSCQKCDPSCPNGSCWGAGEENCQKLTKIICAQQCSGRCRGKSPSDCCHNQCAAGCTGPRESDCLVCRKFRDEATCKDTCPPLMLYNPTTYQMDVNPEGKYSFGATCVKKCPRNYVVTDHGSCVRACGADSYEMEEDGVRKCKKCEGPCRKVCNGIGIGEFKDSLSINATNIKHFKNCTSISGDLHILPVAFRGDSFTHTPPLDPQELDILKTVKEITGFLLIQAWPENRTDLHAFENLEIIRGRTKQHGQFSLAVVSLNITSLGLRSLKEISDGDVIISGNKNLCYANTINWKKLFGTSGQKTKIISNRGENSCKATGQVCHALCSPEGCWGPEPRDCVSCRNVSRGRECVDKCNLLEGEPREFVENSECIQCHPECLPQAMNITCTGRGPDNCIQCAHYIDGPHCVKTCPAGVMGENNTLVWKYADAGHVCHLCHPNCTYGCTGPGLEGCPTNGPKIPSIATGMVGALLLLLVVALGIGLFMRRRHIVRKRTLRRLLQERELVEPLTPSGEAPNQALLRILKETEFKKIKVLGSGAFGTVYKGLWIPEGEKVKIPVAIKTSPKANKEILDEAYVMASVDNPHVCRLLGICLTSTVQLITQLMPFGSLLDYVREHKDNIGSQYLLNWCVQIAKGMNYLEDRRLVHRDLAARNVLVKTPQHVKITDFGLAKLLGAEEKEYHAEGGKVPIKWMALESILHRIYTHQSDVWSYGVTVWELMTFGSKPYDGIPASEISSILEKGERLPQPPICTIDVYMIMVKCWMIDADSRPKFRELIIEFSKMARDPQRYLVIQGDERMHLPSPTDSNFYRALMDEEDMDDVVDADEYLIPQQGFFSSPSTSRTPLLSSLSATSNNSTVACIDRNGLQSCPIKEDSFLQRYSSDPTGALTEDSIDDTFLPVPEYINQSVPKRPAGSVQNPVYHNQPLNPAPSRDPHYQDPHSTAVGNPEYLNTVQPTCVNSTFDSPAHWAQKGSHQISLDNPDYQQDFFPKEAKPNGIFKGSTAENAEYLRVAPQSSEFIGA
How it was run: as §1

[4] = biological target: BaF3 (EGFR L858R/C797S) (Homo sapiens, UniProt P00533, C797S/L858R, cells depend on it); assay: Cell proliferation IC50 assay (Cell Titer GLO), BaF3 LC cells; type: cell-based, mouse; settings: Table 7, 72 h
BaF3 (EGFR L858R/C797S), sequence (P00533 whole entry C797S/L858R): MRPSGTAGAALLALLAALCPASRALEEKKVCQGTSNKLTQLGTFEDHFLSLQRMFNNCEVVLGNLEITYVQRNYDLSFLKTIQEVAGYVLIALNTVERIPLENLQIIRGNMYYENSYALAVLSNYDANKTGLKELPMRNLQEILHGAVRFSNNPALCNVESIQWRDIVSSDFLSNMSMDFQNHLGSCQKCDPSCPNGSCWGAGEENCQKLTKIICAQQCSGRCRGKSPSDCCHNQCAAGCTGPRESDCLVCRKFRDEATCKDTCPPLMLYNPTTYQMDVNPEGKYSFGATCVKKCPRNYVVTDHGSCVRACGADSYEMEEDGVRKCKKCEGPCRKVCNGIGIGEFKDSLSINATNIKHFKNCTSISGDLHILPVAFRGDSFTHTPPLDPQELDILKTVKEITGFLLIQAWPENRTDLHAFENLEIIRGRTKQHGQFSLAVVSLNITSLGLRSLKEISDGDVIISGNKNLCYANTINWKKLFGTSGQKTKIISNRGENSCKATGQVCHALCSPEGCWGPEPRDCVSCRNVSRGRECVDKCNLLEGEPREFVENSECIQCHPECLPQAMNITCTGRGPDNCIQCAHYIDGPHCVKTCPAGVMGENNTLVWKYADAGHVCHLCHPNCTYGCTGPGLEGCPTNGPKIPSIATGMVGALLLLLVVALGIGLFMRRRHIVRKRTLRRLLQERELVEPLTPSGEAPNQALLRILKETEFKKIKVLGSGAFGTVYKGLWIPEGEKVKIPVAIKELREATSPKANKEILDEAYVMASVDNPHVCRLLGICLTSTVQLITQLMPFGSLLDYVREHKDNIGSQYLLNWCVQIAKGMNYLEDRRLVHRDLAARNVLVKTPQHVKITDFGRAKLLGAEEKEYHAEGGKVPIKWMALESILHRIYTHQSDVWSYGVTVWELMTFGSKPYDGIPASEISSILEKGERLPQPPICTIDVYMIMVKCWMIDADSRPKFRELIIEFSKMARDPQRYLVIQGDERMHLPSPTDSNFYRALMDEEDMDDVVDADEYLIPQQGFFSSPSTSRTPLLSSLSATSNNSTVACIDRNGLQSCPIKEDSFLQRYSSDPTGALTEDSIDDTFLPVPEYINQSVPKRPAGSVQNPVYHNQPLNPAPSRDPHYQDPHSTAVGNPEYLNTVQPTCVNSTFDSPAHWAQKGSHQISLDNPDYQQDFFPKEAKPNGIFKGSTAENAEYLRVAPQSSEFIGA
Experimental: (§2) IC50 of compounds in the present invention was determined by Cell Titer GLO reagent from Promega. The procedures are as follows:
(§3) Tumor cells were cultured in specified medium in an incubator at 37° C. and 5% CO2. The cells were passaged periodically. Cells at the logarithmic growth phase were collected for plating at a density of 2000-4000 cells/well. The next day, the compounds of the present invention were serially diluted and added to the cells, with DMSO being the negative control and the culture media without cells being the blank control. The plate was incubated in the incubator for 72 h. The cell viability assay was performed by adding the detection reagents to the cell culture media according to Cell Titer GLO reagent instructions and detecting luminescent signals on an EnVision microplate reader (PerkinElmer).
(§4) Inhibition of cell growth by the compounds of the present invention was plotted by Prism Graphpad software for statistically calculating the IC50 of the compound of the present invention.

[5] = biological target: BaF3 (EGFR Del19) (Homo sapiens, UniProt P00533, cells depend on it, form not given); assay: Cell proliferation IC50 assay (Cell Titer GLO), BaF3 D cells; type: cell-based, mouse; settings: Table 7, 72 h
BaF3 (EGFR Del19), sequence (P00533 with tags, fused parts or gaps DEL746-750): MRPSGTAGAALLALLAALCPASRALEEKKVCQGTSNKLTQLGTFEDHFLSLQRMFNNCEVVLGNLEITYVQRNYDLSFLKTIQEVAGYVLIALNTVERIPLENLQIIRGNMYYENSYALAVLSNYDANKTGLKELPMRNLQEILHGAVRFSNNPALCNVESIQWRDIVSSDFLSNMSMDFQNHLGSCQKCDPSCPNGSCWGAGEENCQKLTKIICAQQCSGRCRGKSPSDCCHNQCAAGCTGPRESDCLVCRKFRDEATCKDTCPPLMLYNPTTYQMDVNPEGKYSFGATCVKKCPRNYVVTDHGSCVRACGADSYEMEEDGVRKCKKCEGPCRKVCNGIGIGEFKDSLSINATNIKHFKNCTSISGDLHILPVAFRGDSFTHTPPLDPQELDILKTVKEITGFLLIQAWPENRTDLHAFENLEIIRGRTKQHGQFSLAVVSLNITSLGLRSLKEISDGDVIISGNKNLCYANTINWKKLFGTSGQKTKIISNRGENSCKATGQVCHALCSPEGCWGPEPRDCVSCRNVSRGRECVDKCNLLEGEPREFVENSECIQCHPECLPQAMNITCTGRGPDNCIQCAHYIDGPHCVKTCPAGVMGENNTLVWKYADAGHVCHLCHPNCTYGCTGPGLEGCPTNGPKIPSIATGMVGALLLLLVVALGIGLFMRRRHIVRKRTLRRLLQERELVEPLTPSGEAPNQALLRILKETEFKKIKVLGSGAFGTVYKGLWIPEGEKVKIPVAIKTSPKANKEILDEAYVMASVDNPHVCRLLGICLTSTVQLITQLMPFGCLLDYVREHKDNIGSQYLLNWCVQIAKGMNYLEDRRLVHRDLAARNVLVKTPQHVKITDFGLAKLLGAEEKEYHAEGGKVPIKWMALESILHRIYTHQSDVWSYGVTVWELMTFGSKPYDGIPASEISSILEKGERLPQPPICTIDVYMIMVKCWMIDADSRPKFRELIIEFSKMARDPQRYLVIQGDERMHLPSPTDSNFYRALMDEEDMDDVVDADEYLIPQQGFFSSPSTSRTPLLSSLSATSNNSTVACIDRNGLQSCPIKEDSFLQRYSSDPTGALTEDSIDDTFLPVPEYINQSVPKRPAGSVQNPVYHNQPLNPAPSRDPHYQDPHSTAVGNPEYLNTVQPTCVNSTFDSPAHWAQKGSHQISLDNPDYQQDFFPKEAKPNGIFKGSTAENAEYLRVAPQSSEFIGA
Experimental: as §2, §3, §4

[6] = biological target: BaF3 (EGFR L858R) (Homo sapiens, UniProt P00533, L858R, cells depend on it); assay: Cell proliferation IC50 assay (Cell Titer GLO), BaF3 L cells; type: cell-based, mouse; settings: Table 7, 72 h
Experimental: as §2, §3, §4

[7] = test system: DT; assay: Cell proliferation IC50 assay (Cell Titer GLO), DT cells; type: cell-based; settings: Mus musculus; Table 7; DT cells (BaF3 with EGFR mutant), 72 h
Experimental: as §2, §3, §4

[8] = test system: LT; assay: Cell proliferation IC50 assay (Cell Titer GLO), LT cells; type: cell-based; settings: Mus musculus; Table 7; LT cells (BaF3 with EGFR mutant), 72 h
Experimental: as §2, §3, §4

[9] = test system: BaF3 (EGFR WT); assay: Cell proliferation IC50 assay (Cell Titer GLO), BaF3 WT cells; type: cell-based; settings: Mus musculus, Ba/F3 EGFR, 72 h
How it was run: as §1

[10] = test system: BaF3 patent; assay: Cell proliferation IC50 assay (Cell Titer GLO), BaF3 parental cells; type: cell-based; settings: Mus musculus, Table 5, 10 ng/ml mIL3, 72 h
Experimental: as §2, §3, §4

[11] = test system: A431; assay: Cell proliferation IC50 assay (Cell Titer GLO), A431 cells; type: cell-based; settings: Homo sapiens, A-431, A431, 72 h, read-out: A431 IC50
How it was run: as §1

[12] = test system: human EGFR-DTC; assay: EGFR protein abundance assay (Western blotting), EGFR-DTC; type: cell-based; settings: Ba/F3 cells expressing human EGFR-DTC, 24 h, Western blot
Experimental: (§5) Mouse Ba/F3 cells stably expressing human EGFR-DTC, EGFR-LTC, or EGFR-DC were transferred to Petri dishes with RPMI-1640 medium (Gibco, Product No. 11875093) containing 10% fetal bovine serum (FBS, Biological Industries, Product No. 04-001-1A) and 0.1% penicillin/streptomycin (P/S) and incubated in an aseptic incubator at 37° C., 95% relative humidity, and 5% CO2. Cells at the logarithmic growth phase were taken and seeded at a density of 50000 cells/well in 12-well plates (Corning, Product No. 3513) containing 1 mL of medium per well. After 24 h, the compounds disclosed herein with different concentrations were added to the wells at a final DMSO concentration of 0.1%. After 24 h, cells were lysed in SDS lysis buffer (1.45 g of SDS, 0.2 g of Tris base, 6 mL of glycerol, 20 mg of bromophenol blue, 310 mg DTT; brought to 40 mL with d2H2O), and the EGFR levels were detected and analyzed by Western Blotting (immunoblotting) using standard molecular biological techniques. Cell lysates were boiled at 95° C. for 8 min, mixed and centrifuged. The total cell proteins in the lysates were subjected to SDS-PAGE (GenScript, Product No. M00654), transferred to NC membranes (GE, Product No. 1060002) by blotting, incubated in a blocking buffer (TAKARA, Product No. T7131A) at room temperature for 60 min, and co-incubated overnight at 4° C. with the following primary antibodies: anti-EGFR (#4267S, 1:1000), anti-phoso-EGFR (#3777S, 1:1000), anti-GAPDH (#5174S, 1:10000), anti-Actin (#5125 S, 1:10000) (all purchased from Cell Signaling Technology). The samples were washed three times with TBST at room temperature, each for 10 min, and then incubated for 60 minutes in a blocking buffer containing a secondary antibody (#7074S, 1:10000, purchased from Cell Signaling Technology) at room temperature. The samples were washed three times with TBST at room temperature, each for 10 min. Chemiluminescent substrates were added, and an Azure c300 system was used for imaging.

[13] = biological target: T2, human EGFR-LTC (Homo sapiens, UniProt P00533, C797S/L858R/T790M); assay: EGFR protein abundance assay (Western blotting), EGFR-LTC; type: cell-based; settings: 24 h, Western blot; for DC50: Ba/F3 cells expressing human EGFR-LTC; for Dmax: BaF3, Ba/F3 cells expressing human EGFR-LTC
T2 construct: expressed in transfected cells
T2 sequence (P00533 25-1210 T790M/C797S/L858R): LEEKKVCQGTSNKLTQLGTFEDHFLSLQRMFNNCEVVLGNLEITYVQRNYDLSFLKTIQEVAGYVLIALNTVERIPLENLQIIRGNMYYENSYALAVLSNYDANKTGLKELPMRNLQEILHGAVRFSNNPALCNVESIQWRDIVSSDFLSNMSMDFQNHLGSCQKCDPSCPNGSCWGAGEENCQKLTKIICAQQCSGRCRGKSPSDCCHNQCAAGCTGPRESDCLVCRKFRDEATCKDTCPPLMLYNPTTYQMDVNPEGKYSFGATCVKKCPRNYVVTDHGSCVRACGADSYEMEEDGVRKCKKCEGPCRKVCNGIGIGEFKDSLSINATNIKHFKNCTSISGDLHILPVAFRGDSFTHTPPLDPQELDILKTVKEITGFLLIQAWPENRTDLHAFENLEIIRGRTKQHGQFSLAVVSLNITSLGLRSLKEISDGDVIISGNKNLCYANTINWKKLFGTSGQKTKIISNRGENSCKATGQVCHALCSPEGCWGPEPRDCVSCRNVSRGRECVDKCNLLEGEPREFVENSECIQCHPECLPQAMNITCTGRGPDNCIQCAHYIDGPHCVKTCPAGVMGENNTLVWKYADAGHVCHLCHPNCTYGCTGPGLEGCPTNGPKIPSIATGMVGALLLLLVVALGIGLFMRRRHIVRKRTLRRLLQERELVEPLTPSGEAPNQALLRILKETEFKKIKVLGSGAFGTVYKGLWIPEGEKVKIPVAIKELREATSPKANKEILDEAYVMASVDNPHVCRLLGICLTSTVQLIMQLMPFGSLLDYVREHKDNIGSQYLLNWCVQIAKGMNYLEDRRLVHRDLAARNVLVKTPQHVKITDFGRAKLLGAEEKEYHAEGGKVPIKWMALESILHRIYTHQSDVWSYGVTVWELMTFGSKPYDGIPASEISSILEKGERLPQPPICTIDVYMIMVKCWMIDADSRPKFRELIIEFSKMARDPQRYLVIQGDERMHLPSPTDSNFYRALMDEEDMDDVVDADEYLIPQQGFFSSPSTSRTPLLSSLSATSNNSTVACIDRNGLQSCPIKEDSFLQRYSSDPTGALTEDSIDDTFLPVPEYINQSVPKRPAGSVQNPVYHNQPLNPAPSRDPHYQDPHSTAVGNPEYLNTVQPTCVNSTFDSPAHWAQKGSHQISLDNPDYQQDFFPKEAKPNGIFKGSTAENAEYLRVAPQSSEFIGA
Experimental: as §5

[14] = test system: human EGFR-DC; assay: EGFR protein abundance assay (Western blotting), EGFR-DC; type: cell-based; settings: Ba/F3 cells expressing human EGFR-DC, 24 h, Western blot
Experimental: as §5

Compound	IC50 ([1]; Table 5, 72 h) [nM]	IC50 ([2]; Table 5, 72 h) [nM]	IC50 [3] [nM]	GI50 [4] [nM]	GI50 [5] [nM]	GI50 [6] [nM]	IC50 [7] [nM]	IC50 [8] [nM]	IC50 ([9]; Table 5, 10 ng/ml EGF) [nM]	IC50 [10] [nM]	IC50 ([11]; Table 5) [nM]	DC50 [12] [nM]	EGFR-DTC Dmax [12] [%]	DC50 [13] [nM]	Dmax [13] [%]	also measured
CCc1cc(Nc2ncc(Cl)c(Nc3ccccc3P(C)(C)=O)n2)c(OC)cc1N1CCC(N2CCN(CCC#Cc3cccc4c3CN(C3CCC(=O)NC3=O)C4=O)CC2)CC1 (single isomer, unassigned) [Example E4]	6.6	37.6	4.8	23	2.1	6.7	5.5	7.4	> 4000	> 4000	2060	2.27	96	6.26	91	DC50 [14]: 18.6 nM; EGFR-DC Dmax [14]: 75%
COc1cc(N2CCC3(CCN(CCCC#Cc4cccc5c4CN(C4CCC(=O)NC4=O)C5=O)CC3)CC2)c(C)cc1Nc1ncc(Br)c(Nc2ccc3ccccc3c2P(C)(C)=O)n1 (stereo not shown) [Example E12]	18.3	111	16.2	106	7.8	37.8	24.8	36	> 4000	> 4000	> 4000					
COc1cc(N2CCC(N3CCN(CCC#Cc4cccc5c4CN(C4CCC(=O)NC4=O)C5=O)CC3)CC2)c(C2CC2)cc1Nc1ncc(Cl)c(Nc2ccccc2P(C)(C)=O)n1 (stereo not shown) [Example E13]	19.6	66.5	20.4	128	6.1	23.5	7.7	16.5	> 4000	> 4000	> 4000					
CCc1cc(Nc2ncc(Cl)c(Nc3ccccc3P(C)(C)=O)n2)c(OC)cc1N1CCC2(CCN(CCCC#Cc3cccc4c3CN(C3CCC(=O)NC3=O)C4=O)CC2)CC1 (stereo not shown) [Example E15]	10.6	120	9.1	54.4	5.3	20.1	13.7	20.7	> 4000	> 4000	> 4000					
CCc1cc(Nc2ncc(Cl)c(Nc3ccccc3P(C)(C)=O)n2)c(OC)cc1N1CCC(N2CCN(CCCCCc3ccc4c(c3F)CN(C3CCC(=O)NC3=O)C4=O)CC2)CC1 (stereo not shown) [Example E20]	5.6	54.3	2.7	19.4	1.7	5.2	7	10	> 4000	> 4000	1270					
CCc1cc(Nc2ncc(Cl)c(Nc3ccccc3P(C)(C)=O)n2)c(OC)cc1N1CCC(N2CCN(CCOc3cccc4c3CN(C3CCC(=O)NC3=O)C4=O)CC2)CC1 (stereo not shown) [Example E95]			1.3	16.9	0.8	6.6	4	3.5				3.02	91	2.13	94	IC50 ([1]; Table 6, 72 h): 5.37 nM; IC50 ([2]; Table 6, 72 h): 48.4 nM; IC50 ([9]; Table 6, 10 ng/ml EGF): ≥ 1820 nM; IC50 ([11]; Table 6): 1730 nM; DC50 [14]: 10.1 nM; EGFR-DC Dmax [14]: 98%
CCc1cc(Nc2ncc(Cl)c(Nc3ccccc3P(C)(C)=O)n2)c(OC)cc1N1CCC(N2Cc3ccc(Oc4cccc5c4CN(C4CCC(=O)NC4=O)C5=O)cc3C2)CC1 (stereo not shown) [Example E120]			3.2	33.9	1.8	16.6	7.8	9.3				7.17	86	13.1	85	IC50 ([1]; Table 6, 72 h): 14.7 nM; IC50 ([2]; Table 6, 72 h): 115 nM; IC50 ([9]; Table 6, 10 ng/ml EGF): ≥ 2160 nM; IC50 ([11]; Table 6): ≥ 1560 nM
